# Results reported in patent US11141371B2, “Extracts of Nannochloropsis sp. and their applications” (Cutech SRL, priority 2014, dated 2021).
# Legend:
# [1] = test system: human sebaceous glands (hSGs); experiment: Sebum (normalized total lipids) of ex-vivo cultured human sebaceous glands; type: cell-based; conditions: 5 μM
# Experimental: Using micro-scissors and tweezers, hSGs were isolated from the pilosebaceous units of a scalp skin sample. They were seeded in 24-well plates at a density of 8 hSGs/well and then cultivated in 500 μl of modified William E medium. After 24 hours of culture, the viability of the hSGs was assessed by means of resazurine assay. […] The control received modified William E medium, while the samples submitted to experimental treatments received the same medium supplemented with the extracts. The culture medium was renewed every other day.
# [2] = test system: IL-1α; experiment: IL-1α release by ex-vivo skin stimulated with 2% SDS (ELISA); type: cell-based, human; conditions: 2% SDS stimulus, lenitive treatment 10 μM; Table 7
# Experimental: In order to study the biological activity of the ethanol extract (EtOH) from Nannochloropsis sp. on the inflammatory response of skin to irritation, the experimental protocol hereinafter summarized was adopted: • i. ex-vivo skin samples (7 mm in diameter) were cultivated for 24 hours in 6-well plates (4 skin samples/well) with 2.5 ml/well of modified Williams E medium. The experimental design included the following experimental groups, each comprising 8 skin samples cultivated in 2 wells: • 1. control samples cultivated without receive any stimulus or treatment; • 2. samples stimulated with 2% SDS without subsequent lenitive treatment (negative control); • 3. samples stimulated with 2% SDS and then treated with dexamethasone at 10 μM (positive control). • 4. 2 groups of samples stimulated with 2% SDS and then treated with EtOH extract at 1 and 10 μg/ml respectively; • ii. After 24 hours of culture the culture medium was renewed and the experimental groups 2 to 4 received the irritant stimulus (2% SDS) through topical application of 4 μl of preparation for each skin sample. After 3 hours the stimulus was removed by mean of cotton buds and 4 μl of lenitive treatment was then administered topically to groups 3 to 4. Stimulus treatments were applied in 50% DMSO, while the lenitive treatments were in pure DMSO. • iii.
# [3] = test system: ex-vivo cultured human skin; experiment: Melanogenesis in ex-vivo human skin culture (melanin content, Fontana-Masson staining); type: cell-based
# Experimental: The adopted culture medium was a modified William-E, and it was renewed at day three of the tissue culture. […] On a daily basis, 4 μl of these extract preparations were applied topically to the cultured skin samples, while the control group received the same quantity of the pure DMSO. After six days of organ culture, histological sections were prepared from the skin samples, and quantitative changes of melanin content were investigated by adopting the Fontana-Masson staining technique. The variation in melanin content was estimated by image analysis of the microphotographs of histological sections of skin.
structure (smiles),measurement,setting,value
COc1cc(CNC(=O)CCCC/C=C/C(C)C)ccc1O [Capsaicin],Sebum in hSGs as % ratio of the control group value,[1]; another donor (Table 11),66.5%
same,Sebum in hSGs as % ratio of the control group value,[1]; another donor (Table 12),91.9%
same,Sebum in hSGs as % ratio of the control group value,[1]; another donor (Table 13),45.6%
"C[C@@H]1C[C@H]2[C@@H]3CCC4=CC(=O)C=C[C@]4(C)[C@@]3(F)[C@@H](O)C[C@]2(C)[C@@]1(O)C(=O)CO [Dexam., dexamethasone]",IL-1α,[2],48.6 pg/mL
same,"IL-1α release [%], SDS group as reference (100%)",[2],92.2%
"O=c1cc(CO)occ1O [KA, Kojic acid]",Melanin content as % ratio of the control group performance,"[3]; 0.1%, Table 6",83.2%
"CC1=C(/C=C/C(C)=C/C=C/C(C)=C/C(=O)O)C(C)(C)CCC1 [Retinoic ac., Retinoic acid]",Melanin content as % ratio of the control group performance,"[3]; 10 μM, third donor (Table 5)",82.4%
same,Melanin content as % ratio of the control group performance,"[3]; 100 μM, third donor (Table 5)",88.3%
